Experimental data from patent publication US8916711B2, “Imidazothiazole-chalcone derivatives as potential anticancer agents and process for the preparation thereof” (Council of Scientific and Industrial Research, priority 2009, dated 2014).

How the values were obtained:
U251 = test: NCI in vitro cytotoxicity (SRB, 48 h), CNS panel; type: cell-based; settings: Homo sapiens, U-251, 48 h exposure
HOP-62 = test: NCI in vitro cytotoxicity (SRB, 48 h), Non-small cell lung panel; type: cell-based; settings: Homo sapiens; HOP-62, Non-small cell lung; 48 h exposure

SMILES	GI50 (U251) [µM]	GI50 (HOP-62) [µM]
COc1ccc(-c2nc3sccn3c2/C=C/C(=O)c2cc(OC)c(OC)c(OC)c2)cc1 [Compound 7a, (E)-3-(6-(4-methoxyphenyl)imidazo[2,1-b]thiazol-5-yl)-1-(3,4,5-trimethoxyphenyl) prop-2-en-1-one]	3.05	2.21
COc1cc(C(=O)/C=C/c2c(-c3ccc(F)cc3)nc3sccn23)cc(OC)c1OC [Compound 7e, (E)-3-(6-(4-fluorophenyl)imidazo[2,1-b]thiazol-5-yl)-1-(3,4,5-trimethoxyphenyl)prop-2-en-1-one]	2.18	2.25
COc1cc(C(=O)/C=C/c2c(C(F)(F)F)nc3sccn23)cc(OC)c1OC [Compound 7f, (E)-3-(6-(trifluoromethyl)imidazo[2,1-b]thiazol-5-yl)-1-(3,4,5-trimethoxyphenyl)prop-2-en-1-one]	1.38	1.93
COc1ccc(C(=O)/C=C/c2c(C(F)(F)F)nc3sccn23)cc1OC [Compound 8f, (E)-1-(3,4-dimethoxyphenyl)-3-(6-(trifluoromethyl)imidazo[2,1-b]thiazol-5-yl) prop-2-en-1-one]	1.87	6
COc1cc(C(=O)/C=C/c2c(-c3ccc(F)cc3)nc3sc(C)cn23)cc(OC)c1OC [Compound 19e, (E)-3-(6-(4-fluorophenyl)-2-methylimidazo[2,1-b]thiazol-5-yl)-1-(3,4,5-trimethoxyphenyl)prop-2-en-1-one]	4.07	85.1
